Laboratory results from BindingDB's records for doi:10.1186/s12858-015-0048-3 (Texas Wesleyan University, 2015).
Values joined by “and” are separate entries in the source; they are usually repeats but may differ in a detail not shown here. Equal entries are not always repeated.

Biological target: T1, Dual specificity protein phosphatase 5 [180-384] (Homo sapiens, UniProt Q16690)
T1 construct: 180-384
T1 sequence (Q16690 whole entry): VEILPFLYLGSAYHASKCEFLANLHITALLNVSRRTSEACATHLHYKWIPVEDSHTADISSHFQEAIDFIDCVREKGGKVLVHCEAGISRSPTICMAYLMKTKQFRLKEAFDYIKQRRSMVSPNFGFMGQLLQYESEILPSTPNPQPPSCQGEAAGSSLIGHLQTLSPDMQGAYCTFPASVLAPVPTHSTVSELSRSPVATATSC
Experiment: p-NPP Assay
Conditions: 25 °C
Experimental: For the 96-well plate validation assay, sodium orthovanadate (Sigma Aldrich) was utilized as a positive control for inhibition [Swarup et al., Biochem. Biophys. Res. Commun., 107:1104-9] at a final concentration of 10 μM, to completely block DUSP5(WT) enzymatic activity. All plate assays were performed in standard 96-well clearbottom plates (Thermo Scientific Nunc) with a total assay volume of 200 μL, using a SpectraMax M5 Microplate Reader (Molecular Devices). The plate validation assay was performed with replicate columns of positive control wells, negative control wells and blank wells. Blank columns contained only buffer and pNPP. Negative control (uninhibited) contained buffer, pNPP, and DUSP5PD(WT); and, positive control contained the same components,but also contained 10 μM sodium orthovanadate. The plate was then shaken and allowed to equilibrate in the spectrophotometer at 25 °C for 30 min. After incubation, 4 μL of a 50 μM enzyme stock was dispensed into appropriate wells utilizing a single-channel pipette. This produced a final enzyme concentration of1 μM. Before a read was taken, the plate was shaken for five seconds. The initial rate for the DUSP5PD(WT) reaction was linear for approximately 90 min;and, the plate was kept in the spectrophotometer at 25 °C for an additional 80 min after the kinetic read. The endpoint reading was subsequently taken at 90 min after initiation of reaction.

Structure (SMILES)	IC50
O=S(=O)(O)c1ccc2[nH]c3c(S(=O)(=O)O)cc(S(=O)(=O)O)cc3c2c1 [RR505]	5.1 mM and 26 mM
Cc1ccc(C(=O)Nc2ccc(S(=O)(=O)O)c3cc(S(=O)(=O)O)cc(S(=O)(=O)O)c23)cc1NC(=O)c1cccc(NC(=O)Nc2cccc(C(=O)Nc3cc(C(=O)Nc4ccc(S(=O)(=O)O)c5cc(S(=O)(=O)O)cc(S(=O)(=O)O)c45)ccc3C)c2)c1 [Suramin hexasodium]	0.044 mM
O=S(=O)(O)c1ccc2c(S(=O)(=O)O)cc(S(=O)(=O)O)cc2c1 [naphthalene-1,3,6-trisulfonate(3-)]	6.4 mM
